System: 941728-121-R-J1-PDC complex spheroid viability
Assay: Anticancer human tumor 941728-121-R-J1-PDC patient-derived lung adenocarcinoma cell line growth inhibition [RAS]
Settings: for IC50: curve of first compound; for viability, T/C: stronger effect = lower value
How it was run: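 Agents were tested in combination matrices in half-log decrements from a top concentration at or near clinical Cmax (10 microM if undetermined). Targets were multi-cell spheroids of tumour lines plus HUVEC and MSC stromal cells.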

[1] = second compound 0.00316 µM, first compound 0.0316 µM
[2] = second compound 0.00316 µM, first compound 0.1 µM
[3] = second compound 0.00316 µM, first compound 0.316 µM
[4] = second compound 0.00316 µM, first compound 1 µM
[5] = second compound 0.00316 µM, first compound 3.16 µM
[6] = second compound 0.00316 µM, first compound 10 µM
[7] = second compound 0.01 µM, first compound 0.0316 µM
[8] = second compound 0.01 µM, first compound 0.1 µM
[9] = second compound 0.01 µM, first compound 0.316 µM
[10] = second compound 0.01 µM, first compound 1 µM
[11] = second compound 0.01 µM, first compound 3.16 µM
[12] = second compound 0.01 µM, first compound 10 µM
[13] = second compound 0.0316 µM, first compound 0.0316 µM
[14] = second compound 0.0316 µM, first compound 0.1 µM
[15] = second compound 0.0316 µM, first compound 0.316 µM
[16] = second compound 0.0316 µM, first compound 1 µM
[17] = second compound 0.0316 µM, first compound 3.16 µM
[18] = second compound 0.0316 µM, first compound 10 µM
[19] = second compound 0.1 µM, first compound 0.0316 µM
[20] = second compound 0.1 µM, first compound 0.1 µM
[21] = second compound 0.1 µM, first compound 0.316 µM
[22] = second compound 0.1 µM, first compound 1 µM
[23] = second compound 0.1 µM, first compound 3.16 µM
[24] = second compound 0.1 µM, first compound 10 µM
[25] = second compound 0.316 µM, first compound 0.0316 µM
[26] = second compound 0.316 µM, first compound 0.1 µM
[27] = second compound 0.316 µM, first compound 0.316 µM
[28] = second compound 0.316 µM, first compound 1 µM
[29] = second compound 0.316 µM, first compound 3.16 µM
[30] = second compound 0.316 µM, first compound 10 µM
[31] = second compound 1 µM, first compound 0.0316 µM
[32] = second compound 1 µM, first compound 0.1 µM
[33] = second compound 1 µM, first compound 0.316 µM
[34] = second compound 1 µM, first compound 1 µM
[35] = second compound 1 µM, first compound 3.16 µM
[36] = second compound 1 µM, first compound 10 µM
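Note: spheroids exposed to compounds for 7 days before readout.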
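Throughout, for viability, T/C: 100% = DMSO vehicle control viability.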

Work on CC(Nc1ccc2c(c1)OCCn1cc(N3C(=O)OCC3C(F)F)nc1-2)C(N)=O (stereo unspecified) + C=CC(=O)N1CCN(c2nc(OCC3CCCN3C)nc3c(F)c(-c4nc(N)cc(C)c4C(F)(F)F)c(Cl)cc23)C(C)C1 yielded an IC50 (second compound 0.00316 µM) of under 31.6 nM, an IC50 (second compound 0.01 µM) of under 31.6 nM and an IC50 (second compound 0.0316 µM) of under 31.6 nM. The IC50 (second compound 0.1 µM) was under 31.6 nM, the IC50 (second compound 0.316 µM) was under 31.6 nM and the IC50 (second compound 1 µM) was under 31.6 nM. The viability, T/C [1] was 16.6%, the viability, T/C [2] was 15.2% and the viability, T/C [3] was 15.4%. For the same molecule, the viability, T/C [4] was 15.4%, the viability, T/C [5] was 12.8% and the viability, T/C [6] was 12%. For the same molecule, the viability, T/C [7] was 17.7%, the viability, T/C [8] was 14.9% and the viability, T/C [9] was 15.2%. The viability, T/C [10] was 12.9%, the viability, T/C [11] was 12.2% and the viability, T/C [12] was 10.5%. It also gave a viability, T/C [13] of 19.2%, a viability, T/C [14] of 14.6% and a viability, T/C [15] of 13.4%. The viability, T/C [16] was 12.9%, the viability, T/C [17] was 10.7% and the viability, T/C [18] was 10.8%. For the same molecule, the viability, T/C [19] was 18.3%, the viability, T/C [20] was 15.3% and the viability, T/C [21] was 12.8%. For the same molecule, the viability, T/C [22] was 13.8%, the viability, T/C [23] was 11.5% and the viability, T/C [24] was 10.8%. For the same molecule, the viability, T/C [25] was 17.5%, the viability, T/C [26] was 15.3% and the viability, T/C [27] was 13.4%. For the same molecule, the viability, T/C [28] was 15.1%, the viability, T/C [29] was 13.6% and the viability, T/C [30] was 11.6%. It also gave a viability, T/C [31] of 14.9%, a viability, T/C [32] of 15.7% and a viability, T/C [33] of 14.3%. The viability, T/C [34] was 13.4%, the viability, T/C [35] was 12.6% and the viability, T/C [36] was 11.8%.

C[C@@H](NC(=O)c1ncnc(N)c1Cl)c1ncc(C(=O)Nc2cc(C(F)(F)F)c(Cl)cn2)s1 + C=CC(=O)N1CCN(c2nc(OCC3CCCN3C)nc3c(F)c(-c4nc(N)cc(C)c4C(F)(F)F)c(Cl)cc23)C(C)C1 showed an IC50 (second compound 0.00316 µM) of under 31.6 nM, an IC50 (second compound 0.01 µM) of under 31.6 nM and an IC50 (second compound 0.0316 µM) of under 31.6 nM. The IC50 (second compound 0.1 µM) was under 31.6 nM, the IC50 (second compound 0.316 µM) was under 31.6 nM and the IC50 (second compound 1 µM) was under 31.6 nM. The viability, T/C [1] was 21.6%, the viability, T/C [2] was 21% and the viability, T/C [3] was 21.2%. It also gave a viability, T/C [4] of 25.4%, a viability, T/C [5] of 23.1% and a viability, T/C [6] of 20.7%. For the same molecule, the viability, T/C [7] was 26.2%, the viability, T/C [8] was 23.9% and the viability, T/C [9] was 23.3%. For the same molecule, the viability, T/C [10] was 27.1%, the viability, T/C [11] was 20.5% and the viability, T/C [12] was 20.2%. The viability, T/C [13] was 22.3%, the viability, T/C [14] was 22% and the viability, T/C [15] was 20.9%. For the same molecule, the viability, T/C [16] was 22%, the viability, T/C [17] was 23.5% and the viability, T/C [18] was 20.4%. For the same molecule, the viability, T/C [19] was 26.8%, the viability, T/C [20] was 24.9% and the viability, T/C [21] was 22.5%. It also gave a viability, T/C [22] of 23.1%, a viability, T/C [23] of 21.9% and a viability, T/C [24] of 20.9%. For the same molecule, the viability, T/C [25] was 20.1%, the viability, T/C [26] was 20.9% and the viability, T/C [27] was 21%. The viability, T/C [28] was 21.6%, the viability, T/C [29] was 24.9% and the viability, T/C [30] was 22.2%. It also gave a viability, T/C [31] of 23.4%, a viability, T/C [32] of 30.2% and a viability, T/C [33] of 22.1%. The viability, T/C [34] was 22.5%, the viability, T/C [35] was 27.3% and the viability, T/C [36] was 22.4%.

In the case of O=C(c1ccc(F)c(F)c1Nc1ccc(I)cc1F)N1CC(O)([C@@H]2CCCCN2)C1 + C=CC(=O)N1CCN(c2nc(OCC3CCCN3C)nc3c(F)c(-c4nc(N)cc(C)c4C(F)(F)F)c(Cl)cc23)C(C)C1, the IC50 (second compound 0.00316 µM) is reported as under 3.16 nM, the IC50 (second compound 0.01 µM) is reported as under 3.16 nM and the IC50 (second compound 0.0316 µM) is reported as under 3.16 nM. The IC50 (second compound 0.1 µM) was under 3.16 nM, the IC50 (second compound 0.316 µM) was under 3.16 nM and the IC50 (second compound 1 µM) was under 3.16 nM. For the same molecule, the viability, T/C (second compound 0.00316 µM, first compound 0.00316 µM) was 20.4%, the viability, T/C (second compound 0.00316 µM, first compound 0.01 µM) was 19.1% and the viability, T/C [1] was 15.5%. For the same molecule, the viability, T/C [2] was 14.5%, the viability, T/C [3] was 12.7% and the viability, T/C [4] was 11.8%. The viability, T/C (second compound 0.01 µM, first compound 0.00316 µM) was 18.9%, the viability, T/C (second compound 0.01 µM, first compound 0.01 µM) was 14.6% and the viability, T/C [7] was 16.7%. The viability, T/C [8] was 12.9%, the viability, T/C [9] was 12.5% and the viability, T/C [10] was 11.6%. For the same molecule, the viability, T/C (second compound 0.0316 µM, first compound 0.00316 µM) was 16.1%, the viability, T/C (second compound 0.0316 µM, first compound 0.01 µM) was 13.8% and the viability, T/C [13] was 13.3%. It also gave a viability, T/C [14] of 13.9%, a viability, T/C [15] of 13% and a viability, T/C [16] of 12.1%. The viability, T/C (second compound 0.1 µM, first compound 0.00316 µM) was 22%, the viability, T/C (second compound 0.1 µM, first compound 0.01 µM) was 13.5% and the viability, T/C [19] was 14.5%. The viability, T/C [20] was 13.8%, the viability, T/C [21] was 12.8% and the viability, T/C [22] was 10.9%. The viability, T/C (second compound 0.316 µM, first compound 0.00316 µM) was 15%, the viability, T/C (second compound 0.316 µM, first compound 0.01 µM) was 13.7% and the viability, T/C [25] was 13.9%. The viability, T/C [26] was 13.1%, the viability, T/C [27] was 12.4% and the viability, T/C [28] was 13.5%. For the same molecule, the viability, T/C (second compound 1 µM, first compound 0.00316 µM) was 16.4%, the viability, T/C (second compound 1 µM, first compound 0.01 µM) was 17% and the viability, T/C [31] was 15.3%. For the same molecule, the viability, T/C [32] was 13.2%, the viability, T/C [33] was 13.2% and the viability, T/C [34] was 11.1%.

From PubChem BioAssay AID2060896 (Molecular Pharmacology Branch, DTP, NCI, 2025)
